The values below come from paper PMC6270160, “Bioactive Phenylpropanoid Glycosides from Tabebuia avellanedae” (Molecules, 2013).

By IC50 is commonly meant the concentration that inhibits the measured activity by half.

Experiment [1] is described as follows: DPPH free radical scavenging (antioxidant) assay. As to conditions: DPPH in MeOH, 30 min at room temperature in the dark, absorbance at 517 nm, triplicate; read-out: IC50 ± SD, scavenging activity on DPPH free radicals. How it is done:
Test samples (100 µL) at different concentrations in MeOH and DPPH (200 µL, […]) in MeOH were added to 96-well microtiter plates. The plate was shaken for 1 min by a plate shaker, and incubated for 30 min at room temperature in the dark. After incubation, the absorbance was recorded at 517 nm. The tested samples at different concentrations without DPPH solution were used as blank control to eliminate the influence of the sample color. Ascorbic acid was used as positive control, and DPPH solution in MeOH served as a negative control. All tests were independently performed in triplicate. DPPH radical scavenging activity (%) = [1 − (AbsS − AbsB)/AbsC] × 100%.

In experiment [2] the target is T1, cytochrome CYP3A4 enzyme (Homo sapiens, UniProt P08684).
T1 construct: purchased
T1 sequence (P08684 whole entry): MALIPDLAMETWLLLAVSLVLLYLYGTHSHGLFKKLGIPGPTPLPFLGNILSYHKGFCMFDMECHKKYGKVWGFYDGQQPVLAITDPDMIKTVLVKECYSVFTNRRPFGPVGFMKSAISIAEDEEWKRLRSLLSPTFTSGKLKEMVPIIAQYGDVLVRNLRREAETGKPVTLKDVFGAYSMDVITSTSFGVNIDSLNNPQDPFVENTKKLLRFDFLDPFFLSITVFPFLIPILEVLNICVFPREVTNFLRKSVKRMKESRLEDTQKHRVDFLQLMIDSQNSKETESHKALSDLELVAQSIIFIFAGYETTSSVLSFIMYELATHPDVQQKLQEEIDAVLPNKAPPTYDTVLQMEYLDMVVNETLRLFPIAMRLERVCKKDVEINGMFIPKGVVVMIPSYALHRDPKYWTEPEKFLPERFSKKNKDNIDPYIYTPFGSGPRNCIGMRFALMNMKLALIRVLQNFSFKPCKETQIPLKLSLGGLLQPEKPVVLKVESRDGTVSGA
The experiment can be described thus: Inhibitory activity on cytochrome CYP3A4 enzyme (Vivid substrate, P450 BACULOSOMES, fluorescence). The class given is in vitro ADME. To be noted: 20 min pre-incubation, 30 min reaction, fluorescence at 460 nm; read-out: IC50 ± SD, inhibitory activity on CYP3A4 enzyme. How it is done:
Measurement of inhibitory activity on cytochrome CYP3A4 enzyme vivid substrate and fluorescent standards were reconstituted and a standard curve was prepared. 40 µL of test samples at different concentrations diluted in 1% DMSO, positive inhibition control and solvent were added to each 96-well plate, then was added 50 µL of Master pre-mix consisting of P450 BACULOSOMES in vivid CYP 450, Reaction Buffer and Regeneration System (consisting of glucose-6-phosphate and glucose-6-phosphate dehydrogenase), and the plate was mixed and incubated for 20 min to allow samples to interact with the CYP3A4 enzyme. The reaction was started by addition of 10 µL reaction starting liquid including vivid substrate, NADP and Reaction Buffer mixture, and the fluorescence was recorded using a LAS-3000 luminescent image analyzer at a wavelength of 460 nm after 30 min duration of reaction. The inhibition rate was calculated using the equation: % inhibition = [1 − relative fluorescence units (rfu) in the presence of the test sample or positive inhibition control/rfu in the absence of the test compound or positive inhibition control] × 100.

Consider `CC1OC(OC2C(O)C(OCCc3ccc(O)c(O)c3)OC(CO)C2OC(=O)C=Cc2ccc(O)c(O)c2)C(O)C(O)C1O` (stereo not shown) [Compound 1], for which the IC50 amounted to 2.33 ± 0.06 µM in experiment [1] and 46.3 ± 1.53 µM in experiment [2]. In the same order, the values of `CC1OC(OC2C(O)C(OCCc3ccc(O)c(O)c3)OC(CO)C2OC(=O)C=Cc2ccc(O)c(O)c2)C(O)C(O)C1O` (stereo not shown) [Compound 3] are 0.66 ± 0.04 µM and 37.7 ± 2.11 µM. In the same order, the values of `CC1OC(OC2C(O)C(COC(=O)C=Cc3ccc(O)c(O)c3)OC(OCCc3ccc(O)c(O)c3)C2O)C(O)C(O)C1O` (stereo not shown) [Compound 4] are 1.15 ± 0.04 µM and 91.7 ± 5.44 µM. The matching figures for `C[C@@H]1O[C@@H](O[C@H]2[C@@H](O)[C@@H](CO)O[C@@H](OCCc3ccc(O)c(O)c3)[C@@H]2O)[C@H](O)[C@H](O)[C@H]1OC(=O)/C=C/c1ccc(O)c(O)c1` [Compound 5, 1'-O-β-(3,4-dihydroxyphenyl)-ethyl-[4′′-O-caffeoyl-(α-L-rhamnopyranosyl)]-(l-3′)-D-galactopyranoside]: 0.12 ± 0.03 µM and 22.5 ± 1.65 µM.

For `CC1OC(OC2C(O)C(CO)OC(OCCc3ccc(O)c(O)c3)C2O)C(O)C(O)C1OC(=O)C=Cc1ccc(O)c(O)c1` [Compound 6, 1′-O-β-(3,4-dihydroxyphenyl)-ethyl-[4′′-O-caffeoyl-(α-L-fucopyranosyl)]-(l-3′)-D-galactopyranoside], the results for the IC50 in experiment [1] and in experiment [2] were 0.24 ± 0.01 µM and 15.1 ± 2.43 µM, respectively. In the same order, the values of `CC1OC(OC2C(O)C(OCCc3ccc(O)c(O)c3)OC(CO)C2OC(=O)C=Cc2ccc(O)c(O)c2)C(O)C(O)C1O` [Compound 2, 1′-O-β-(3,4-dihydroxyphenyl)-ethyl-4′-O-caffeoyl-α-L-fucopyranosyl-(l-3′)-D-glucopyranoside] are 1 ± 0.02 µM and 43.3 ± 1.79 µM. For `O=C1O[C@H]([C@@H](O)CO)C(O)=C1O` [Ascorbic acid, reference compound], the IC50 in experiment [1] was determined as 3.08 ± 0.06 µM.
